Laboratory results from publication PMC5877410 (Journal of medicinal chemistry, 2017).
Where “and” joins values, the source holds several entries; their conditions need not be identical. Identical values can stand only once. Like-named read-outs stand apart in the source and are kept apart here.

Key:
NAP1 spores = test: Phase-contrast microscope spore count assay; format: cell-based, Clostridium difficile
NAP1 C. difficile spores = test: Optical density; format: cell-based, Clostridium difficile
Caco-2 cell monolayer [1] = test: Caco-2 cell monolayer bidirectional permeability assay; settings: 10 μM
[2] = target: C. difficile spore germination; format: cell-based, Clostridium difficile; settings: inhibitor evaluated at 0.2 mM, varying TCA; average of three experiments ± SEM
Caco-2 cell monolayer [3] = test system: Caco-2 cell monolayer
ATCC strain 630 = settings: murine infection model, strain ATCC 630; cited from earlier work
Caco-2 monolayers = settings: cited from earlier work
[4] = 10 μM compound, 2000 μM TCA, after 20 min, mean ± SD, N = 3

Compound: CO[C@@H]1CC[C@@]2(C)[C@@H](C1)C[C@H](OC)[C@@H]1[C@@H]2CC[C@]2(C)[C@@H]([C@H](C)CCC(=O)O)CC[C@@H]12 [6b, (R)-4-((3R,5S,7S,8R,9S,10S,13R,14S,17R)-3,7-Dimethoxy-10,13-dimethylhexadecahydro-1H-cyclopenta[a]-phenanthren-17-yl)pentanoic Acid]
- Percent Spore Germination t20 (NAP1 spores; [4]): 71 ± 2%

Compound: sodium 5-((R)-3-((3R,5R,7R,8R,9S,10S,13R,14S,17R)-7-hydroxy-3-methoxy-10,13-dimethyl-hexadecahydro-1H-cyclopenta[a]phenanthren-17-yl)butyl)-tetrazol-1-ide [37a]
- Concentration Required for Complete Inhibition (NAP1 C. difficile spores): 5 µM
- fold greater permeability in the A–B direction than C7-sulfated analogue 38a (Caco-2 cell monolayer [1]): over 25 times
- Ki [2]: 17.9 ± 4.6 µM
- mean permeability A–B (Caco-2 cell monolayer [3]): 10.7 10^−6 cm/s
- mean permeability B–A (Caco-2 cell monolayer [3]): 1.9 10^−6 cm/s
- Percent Spore Germination t0 (NAP1 spores): 20% and 16 ± 4%
- Percent Spore Germination t20 (NAP1 spores): 25%

Compound: sodium 5-((R)-3-((3R,5S,7R,8R,9S,10S,13R,14S,17R)-3-methoxy-10,13-dimethyl-7-(sulfonatooxy)hexadecahydro-1H-cyclopenta[a]phenanthren-17-yl)-butyl)tetrazol-1-ide [38a]
- mean permeability A–B (Caco-2 cell monolayer [3]): 0.4 10^−6 cm/s
- mean permeability B–A (Caco-2 cell monolayer [3]): 0.4 10^−6 cm/s
- Percent Spore Germination t0 (NAP1 spores): 20 ± 11%
- Percent Spore Germination t20 (NAP1 spores): 48 ± 11%

Compound: CO[C@@H]1CC[C@@]2(C)[C@@H](C1)C[C@H](OS(=O)(=O)[O-])[C@@H]1[C@@H]2CC[C@]2(C)[C@@H]([C@H](C)CCC(=O)N3CCCC3)CC[C@@H]12.[Na+] [21b, Sodium (3R,5S,7S,8R,9S,10S,13R,14S,17R)-3-Methoxy-10,13-dimethyl-17-((R)-5-oxo-5-(pyrrolidin-1-yl)pentan-2-yl)-hexadecahydro-1H-cyclopenta[a]phenanthren-7-yl Sulfate]
- Percent Spore Germination t20 (NAP1 spores; [4]): 30 ± 6%
- Percent Spore Germination t0 (NAP1 spores; 10 μM compound, 2000 μM TCA, time 0, mean ± SD, N = 3): 18 ± 2%
- Inhibition of spore germination at 50 μM (NAP1 spores; 50 μM compound, 2000 μM TCA (Table S1)): complete inhibition of spore germination

Compound: COC(=O)CC[C@@H](C)[C@H]1CC[C@H]2[C@@H]3[C@H](O)C[C@@H]4C[C@H](O)CC[C@]4(C)[C@H]3CC[C@]12C [2a, methyl (R)-4-((3R,5S,7R,8R,9S,10S,13R,14S,17R)-3,7-dihydroxy-10,13-dimethylhexadecahydro-1H-cyclopenta[a]phenanthren-17-yl)pentanoate, reference compound]
- Percent Spore Germination t20 (NAP1 spores; [4]): 71 ± 1%

Compound: C[C@H](CCC(=O)Nc1cccc(S(=O)(=O)O)c1)[C@H]1CC[C@H]2[C@@H]3[C@H](O)C[C@@H]4C[C@H](O)CC[C@]4(C)[C@H]3C[C@H](O)[C@]12C [compound 3, reference compound]
- Effect on CDI symptoms (ATCC strain 630): eradicated CDI symptoms
- Percent Spore Germination t20 (NAP1 spores; [4]): 74 ± 2%

Compound: sodium 5-((R)-3-((3R,5S,7R,8R,9S,10S,13R,14S,17R)-3,7-dihydroxy-10,13-dimethylhexadecahydro-1H-cyclopenta[a]phenanthren-17-yl)butyl)tetrazol-1-ide [35a]
- Concentration Required for Complete Inhibition (NAP1 C. difficile spores): 10 µM
- Percent Spore Germination Relative to control (NAP1 spores): 12% and 12 ± 6%
- Percent Spore Germination t0 (NAP1 spores): 15 ± 6%
- Percent Spore Germination t20 (NAP1 spores): 22 ± 6%

Compound: C[C@H](CCC(=O)NCCS(=O)(=O)O)[C@H]1CC[C@H]2[C@@H]3[C@H](O)C[C@@H]4C[C@H](O)CC[C@]4(C)[C@H]3C[C@H](O)[C@]12C [TCA, taurocholic acid]
- transport ratio (Caco-2 monolayers): greater than 10
